The source of these data is patent publication US20250154154A1 (Relay Binney Street, 2nd Floor, priority 2020, published 2025).

For assay [1], the system named is phospho-S6RP (Ser 235/236) in RBE cells. The assay can be described thus: Cellular Proliferation Protocol (cellular phospho-S6RP HTRF), RBE cells. It is filed as cell-based. To be noted: 6 hours treatment, RBE or SNU-1079 cells, cell line not given. The procedure:
Cellular Proliferation Protocol
Cellular phospho-S6RP (Ser 235/236) was measured using a Fluorescence Resonance Energy Transfer (FRET) sandwich assay format (Cisbio HTRF Cat. No. 64RP6PEG). This format uses 2 different, labelled antibodies (Eu^3+-Cryptate donor and d2 acceptor) that positively modulate a specific signal in proportion to phospho-S6RP (Ser 235/236) directly in cells. RBE or SNU-1079 cells were cultivated in T-75 flasks at 37° C., 5% CO2, 95% relative humidity in RPMI 1640 medium with 10% FBS and 1% Penicillin/Streptomycin and detached with trypsin/EDTA at 80-90% confluency. Cells were then seeded in 40 μL volume per well in 384-well flat-bottom polystyrene microplates (Corning Cat. No. 3570) at a seeding density of 2000 cells/well for RBE and 3000 cells/well for SNU-1079 followed by 24 hour incubation at 37° C., 5% CO2, 95% relative humidity. On the next day, compounds were diluted to […] the indicated concentrations and 40 nL of these treatment compounds, along with DMSO vehicle control, were added to the cells (final concentration of compounds is then the indicated concentrations). Treatment was carried out for 6 hours at 37° C., 5% CO2, 95% relative humidity after which the plates were cooled to room temperature before aspirating the medium. Cells were then lysed on a shaker for 45 minutes at room temperature with 20 μL of 1× supplemented lysis buffer per well. After lysis, 5 μL of pre-mixed antibodies was added per well. Plates were covered with black sealing film and incubated overnight at room temperature on a shaker before being read on a PerkinElmer EnVision microplate reader. Percent activation was calculated relative to DMSO control and IC50 values were obtained from dose-response data fitted to a 4-parameter curve.

Assay [2] concerns the target SRC (Homo sapiens, UniProt P12931). The assay can be described thus: SRC Biochemical Assay Protocol (microfluidic mobility shift assay, FLPeptide4 substrate). Put shortly: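 Mobility-shift readout of phosphorylated FLPeptide4 (1.5 μM) after 90 min kinase reaction with 50 μM ATP and 0.26 nM SRC in pH 7.4 HEPES buffer. Compounds, tested 0.0017–100 μM, were preincubated 30 min with enzyme and peptide; IC50 from 4-parameter logistic fit versus neutral controls.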

The subject of assay [3] is RBE cells. Description: Cell Viability Protocol (CellTiterGlo), RBE cells. It counts as cell-based. To be noted: RBE or SNU-1079 cells, 72 or 120 hour, cell line and time not given. In short, it runs like this: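 After 72 h or 120 h compound exposure at 37° C, viability was read by CellTiterGlo as % of DMSO vehicle, with IC50 fitted by a 4-parameter curve. Cells had been seeded at 1200/well in 10% FBS RPMI 1640 and allowed 24 h before dosing.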
(ATP-based viability assays read luminescence as a measure of living cells.)

Sequence of SRC (P12931 whole entry, species assumed): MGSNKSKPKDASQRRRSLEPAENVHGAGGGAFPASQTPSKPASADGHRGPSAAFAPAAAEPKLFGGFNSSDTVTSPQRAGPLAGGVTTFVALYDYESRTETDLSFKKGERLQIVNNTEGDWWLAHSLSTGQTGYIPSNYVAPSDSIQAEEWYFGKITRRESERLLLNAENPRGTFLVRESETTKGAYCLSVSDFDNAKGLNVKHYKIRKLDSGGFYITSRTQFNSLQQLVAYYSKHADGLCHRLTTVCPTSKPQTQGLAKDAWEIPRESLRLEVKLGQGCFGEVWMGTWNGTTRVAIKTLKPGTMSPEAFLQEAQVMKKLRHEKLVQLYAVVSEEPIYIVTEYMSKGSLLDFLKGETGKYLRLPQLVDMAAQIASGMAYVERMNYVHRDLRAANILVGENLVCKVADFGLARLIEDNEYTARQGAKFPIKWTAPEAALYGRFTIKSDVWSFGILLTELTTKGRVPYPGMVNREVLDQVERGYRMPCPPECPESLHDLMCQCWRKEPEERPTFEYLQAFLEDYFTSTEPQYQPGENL

As a reminder, the IC50 is the concentration needed to halve the response being measured. Turning to `C=CC(=O)N1CCC(N2CC(C#Cc3c(-c4ccc(C(F)(F)F)cc4)c4c(N)ncnc4n3C)C2)CC1` [II-102], the IC50 in assay [1], in assay [2] and in assay [3] was 10 to 1000 nM each time.

Regarding `C=CC(=O)N[C@H](C)C(=O)N1CCC(C#Cc2c(-c3ccc(Oc4ccccc4)cc3)c3c(N)ncnc3n2[C@H]2CCOC2)CC1` [II-185, N-((R)-1-(4-((4-amino-5-(4-phenoxyphenyl)-7-((S)-tetrahydrofuran-3-yl)-7H-pyrrolo[2,3-d]pyrimidin-6-yl)ethynyl)piperidin-1-yl)-1-oxopropan-2-yl)acrylamide], the figures for the IC50 in assay [1] (6 h), in assay [2] and in assay [3] were 1000 to 10000 nM, 10 to 1000 nM and 1000 to 10000 nM, respectively.

Turning to `C=CC(=O)N1CC[C@H](N2CC(C#Cc3c(-c4ccc(Oc5ccccc5)c(OC)c4)c4c(N)nccc4n3C)C2)[C@H](O)C1` [II-79], the IC50 in assay [1], in assay [2] and in assay [3] was 10 to 1000 nM throughout.

In the case of `C=CC(=O)N1CC[C@@H](N2CC(F)(C#Cc3c(-c4ccc(Oc5ccccc5)cc4)c4c(N)ncnc4n3C)C2)C[C@H]1CO` [II-205, 1-((2S,4R)-4-(3-((4-amino-7-methyl-5-(4-phenoxyphenyl)-7H-pyrrolo[2,3-d]pyrimidin-6-yl)ethynyl)-3-fluoroazetidin-1-yl)-2-(hydroxymethyl)piperidin-1-yl)prop-2-en-1-one], the IC50 in assay [1] (6 h), in assay [2] and in assay [3] was 10 to 1000 nM in each case.

In the case of `C=CC(=O)N1CCC(N2CC(C#Cc3c(-c4ccc(Oc5ccccc5)cc4)c4c(N)ncnc4n3C3CC(=O)N(C)C3)C2)CC1` (stereo not drawn) [II-213, 4-(6-((1-(1-acryloylpiperidin-4-yl)azetidin-3-yl)ethynyl)-4-amino-5-(4-phenoxyphenyl)-7H-pyrrolo[2,3-d]pyrimidin-7-yl)-1-methylpyrrolidin-2-one], the IC50 in assay [1] (6 h), in assay [2] and in assay [3] was 1000 to 10000 nM each time.

As to `Cc1cccc(Oc2ccc(-c3c(C#C[C@@H]4[C@H]5CN(C(=O)/C=C/CN(C)C)C[C@@H]45)n(C)c4ncnc(N)c34)cc2)n1` [II-208, (2E)-1-[(1R,5S,6S)-6-[2-(4-amino-7-methyl-5-[4-[(6-methylpyridin-2-yl)oxy]phenyl]-7H-pyrrolo[2,3-d]pyrimidin-6-yl)ethynyl]-3-azabicyclo[3.1.0]hexan-3-yl]-4-(dimethylamino) but-2-en-1-one], the half-inhibitory concentration (IC50) in assay [1] (6 h), in assay [2] and in assay [3] was 10 to 1000 nM each time.

As for `C=CC(=O)N1CC[C@@H](N2CC(C#Cc3c(-c4ccc(Oc5cccc(F)c5)cc4)c4c(N)ncnc4n3C)C2)[C@@H](O)C1`, the IC50 in assay [1], in assay [2] and in assay [3] was 10 to 1000 nM each time.

As to `C=CC(=O)N1CC[C@@H](N2CC(C#Cc3c(-c4ccc(Oc5ccccc5)c(OC)n4)c4c(N)ncnc4n3C)C2)[C@@H](O)C1` [II-316], the values for the IC50 in assay [1], in assay [2] and in assay [3] were at most 10 nM, 10 to 1000 nM and at most 10 nM, respectively.

With `C=CC(=O)N1C[C@@H]2[C@@H](C#Cc3c(-c4ccc(Oc5cccc(C)n5)c(OC)c4)c4c(N)ncnc4n3C(C)C)[C@@H]2C1` [II-219, 1-((1R,5S,6s)-6-((4-amino-7-isopropyl-5-(3-methoxy-4-((6-methylpyridin-2-yl)oxy)phenyl)-7H-pyrrolo[2,3-d]pyrimidin-6-yl)ethynyl)-3-azabicyclo[3.1.0]hexan-3-yl)prop-2-en-1-one], the IC50 in assay [1] (6 h), in assay [2] and in assay [3] was at most 10 nM throughout.

Regarding `Cn1c(C#CC2CC3(C2)CN(C(=O)/C=C/CN2CC(F)C2)C3)c(-c2ccc(Oc3ccccc3)cc2)c2c(N)ncnc21` [II-175, (E)-1-(6-((4-amino-7-methyl-5-(4-phenoxyphenyl)-7H-pyrrolo[2,3-d]pyrimidin-6-yl)ethynyl)-2-azaspiro[3.3]heptan-2-yl)-4-(3-fluoroazetidin-1-yl)but-2-en-1-one], the 50% inhibitory concentration (IC50) is 10 to 1000 nM in assay [1] (6 h), 10 to 1000 nM in assay [2] and at most 10 nM in assay [3].

As for `C=CC(=O)N1CC[C@H](N2CC(C#Cc3c(-c4ccc(F)c5c4OCO5)c4c(N)ncnc4n3C(C)C)C2)[C@H](F)C1` [II-286, 1-((3R,4S)-4-(3-((4-amino-5-(7-fluorobenzo[d][1,3]dioxol-4-yl)-7-isopropyl-7H-pyrrolo[2,3-d]pyrimidin-6-yl)ethynyl)azetidin-1-yl)-3-fluoropiperidin-1-yl)prop-2-en-1-one], the results for the IC50 in assay [1] (6 h), in assay [2] and in assay [3] were at most 10 nM, at most 10 nM and 10 to 1000 nM, respectively.

`C=CC(=O)N1CC[C@H](N2CC(C#Cc3c(-c4ccc(Oc5cccc(C)n5)cc4)c4c(N)ncnc4n3C)C2)[C@H](F)C1` [II-202, 1-((3R,4S)-4-(3-((4-amino-7-methyl-5-(4-(6-methylpyridin-2-yloxy)phenyl)-7H-pyrrolo[2,3-d]pyrimidin-6-yl)ethynyl)azetidin-1-yl)-3-fluoropiperidin-1-yl)prop-2-en-1-one]: the 50% inhibitory concentration (IC50) in assay [1] (6 h), in assay [2] and in assay [3] was 10 to 1000 nM in each case.

As to `CCC(=O)N1C[C@@H]2[C@@H](C#Cc3c(-c4ccc(F)c5c4OCO5)c4c(N)ncnc4n3C(C)C)[C@@H]2C1` [II-133], the IC50 in assay [1] is 10 to 1000 nM; in assay [2] it was at most 10 nM; in assay [3] it was 10 to 1000 nM.

In the case of `C=CC(=O)N1CCC(N2CC(C#Cc3c(-c4ccc(Cl)c(C)n4)c4c(N)ncnc4n3C(C)C)C2)CC1` [II-326], the IC50 in assay [1], in assay [2] and in assay [3] was 10 to 1000 nM in each case.

With `C=CC(=O)N1CCC(N2CC(C#Cc3c(-c4ccc(Oc5ccccc5)c(OC)c4)c4c(N)ncnc4n3C)C2)CC1` [II-1], the IC50 in assay [1] (6 h) is at most 10 nM; in assay [2], 10 to 1000 nM; in assay [3], at most 10 nM.

`C=CC(=O)N1C[C@@H]2[C@@H](C#Cc3c(-c4ccccc4OC)c4c(N)ncnc4n3C)[C@@H]2C1` [II-269]: the IC50 in assay [1] (6 h), in assay [2] and in assay [3] was 10 to 1000 nM throughout.

Turning to `CN(C)C/C=C/C(=O)N1CC(C#Cc2c(-c3ccc(Oc4ccccc4)cc3)c3c(N)ncnc3n2CCO)C1` [II-194, (E)-1-(3-((4-amino-7-(2-hydroxyethyl)-5-(4-phenoxyphenyl)-7H-pyrrolo[2,3-d]pyrimidin-6-yl)ethynyl)azetidin-1-yl)-4-(dimethylamino) but-2-en-1-one], the IC50 in assay [1] (6 h), in assay [2] and in assay [3] was 10 to 1000 nM in each case.

`C=CC(=O)N1CC[C@@H](N2CC(C#Cc3c(-c4ccc5c(c4)N(C)CCO5)c4c(N)ncnc4n3C)C2)[C@@H](O)C1` [II-77]: the IC50 in assay [1], in assay [2] and in assay [3] was 1000 to 10000 nM throughout.

Turning to `C=CC(=O)N1CC[C@H](N2CC(C#Cc3c(-c4ccc(Cl)c(C)c4)c4c(N)ncnc4n3C(C)C)C2)[C@H](O)C1` [II-112], the IC50 in assay [1] was 10 to 1000 nM; in assay [2], at most 10 nM; in assay [3] it was 10 to 1000 nM.

In the case of `C=CC(=O)N1CC[C@H](N2CC(C#Cc3c(-c4ccc(Cl)c(C(F)F)c4)c4c(N)ncnc4n3C(C)C)C2)[C@H](O)C1` [II-118], the IC50 in assay [1] is 10 to 1000 nM; in assay [2], at most 10 nM; in assay [3] it was 10 to 1000 nM.

Consider `COc1cc(-c2c(C#C[C@@H]3[C@H]4CN(C(=O)/C=C/CN5CCC(F)C5)C[C@@H]34)n(C)c3ncnc(N)c23)ccc1Oc1cccc(C)n1` (stereo partly drawn) [II-238, (E)-1-((1R,5S,6s)-6-((4-amino-5-(3-methoxy-4-((6-methylpyridin-2-yl)oxy)phenyl)-7-methyl-7H-pyrrolo[2,3-d]pyrimidin-6-yl)ethynyl)-3-azabicyclo[3.1.0]hexan-3-yl)-4-(3-fluoropyrrolidin-1-yl)but-2-en-1-one], for which the IC50 in assay [1] (6 h), in assay [2] and in assay [3] was 10 to 1000 nM throughout.

Consider `C=CC(=O)N1CC(N2CCC(C#Cc3c(-c4ccc(Oc5ccccc5)cc4)c4c(N)ncnc4n3C(C)C)CC2)C1` [Example I-45], for which the IC50 in assay [1] (6 h), in assay [2] and in assay [3] was at most 10 nM throughout.

As for `C=CC(=O)N1CC[C@@H](N2CC(C#Cc3c(-c4ccc(Cl)cc4)c4c(N)ncnc4n3CCOC)C2)[C@@H](O)C1` [II-54], the IC50 in assay [1], in assay [2] and in assay [3] was 10 to 1000 nM each time.
